Reference: US8476433B2, “Agent exhibiting the properties of a cognitive function promoter (embodiments)” (Unikorm, priority 2010, dated 2013)

What was measured:
[1] = system: learning and memory of mice, scopolamine-induced amnesia; test: Conditioned passive avoidance response (CPAR), step down method, in model of amnesia induced by scopolamine and undertraining; assay type: in vivo; details: for Number of animals with CPAR (%): male mice; for effect on learning and memory during scopolamine-induced amnesia: mice, i/p before or immediately after training, tested after 2 hours and 24 hours
Excerpt: In order to study the activity of the synthesized compounds in vivo one of the most used methodologies of examination and assessment of activation of cognitive functions was used—improvement or easier development of conditioned passive avoidance response (CPAR) in animals. From the time of study of cognitive properties of nootropil and up to the present time, conditioned passive avoidance response (CPAR) is used more often than other behavioral procedures for studying and screening of drugs affecting the processes of learning and memory in rodents. CPAR is used for studying the action of drugs on learning (if the tested drug is administered before a training session), on saving or retention in memory (if the drug is administered after the training) and on memory retrieval (administering drugs before memory testing). This method is also used to study and test substances in models of disorders of learning and memory, caused by experimental brain dysfunction (GABA, cholinergic, induced by cholinergic toxin AF64A), alcohol-benzodiazepine induced, electrocution induced, hypoxia induced and age-related amnesias, inhibition of protein synthesis, etc..
Comparative study of the effects of compounds 1 and 2 on learning and memory of mice in tests of conditioned passive avoidance response (CPAR) in model of amnesia, induced by the administration of scopolamine—a blocker of central cholinergic receptors.
Studies were performed using 470 male mice, body mass 20-22 g, using 20 animals for one dose. CPAR conditioning of mice was performed using step down method, in a cell with electrode floor and avoidance area. Parameters of electric stimulation for animals leaving the safety area were 50 V during 3-5 sec. The criterion of learning and memory was the staying of the animal in the area during 1 minute when testing 2 hours after training and 24 hours after training.
Learning deficit was induced by the administration of scopolamine (1.0 mg/kg, intraperitoneal) 15 minutes before the training and by reduction in the number of animal training sessions to 2 instead of 5 (undertraining).
The duration of the mnemotropic action of the compounds in conditions of learning deficit was assessed by the number of animals in a group (in percents), staying in safety zone (with immobilization).
To assess their action of different phases of memory development (fixation, consolidation and reproduction) the tested compounds were administered before the training (before scopolamine) and immediately after the training. The tested compounds were administered intraperitoneally using 2 schedules: […] and, correspondingly, 5 minutes before scopolamine, second—compounds in the same doses right after the training. Control was parallel in each series of experiments: one control group received saline solution instead of the tested compounds and scopolamine, second control group—scopolamine, using the same schedule and doses.
Statistical analysis was conducted with significance of difference from negative control at p<0.05.

Acute toxicity i/p = details: for Therapeutic index LD50/Min. ED: LD50 i/p / minimum effective dose in CPAR; for LD50: in vivo, intraperitoneal
[2] = dose 0.01 mg/kg i/p, scopolamine 1.0 mg/kg i/p amnesia
[3] = dose 0.1 mg/kg i/p, scopolamine 1.0 mg/kg i/p amnesia
[4] = dose 1.0 mg/kg i/p, scopolamine 1.0 mg/kg i/p amnesia
[5] = dose 10.0 mg/kg i/p, scopolamine 1.0 mg/kg i/p amnesia

Row | SMILES | Number of animals with CPAR (%) [1, 2] [%] | Number of animals with CPAR (%) [1, 3] [%] | Number of animals with CPAR (%) [1, 4] [%] | Number of animals with CPAR (%) [1, 5] [%] | effect on learning and memory during scopolamine-induced amnesia [1] | Therapeutic index LD50/Min. ED (Acute toxicity i/p) | LD50 (Acute toxicity i/p) [mg/kg] | learning ability (animals staying in safety area) after scopolamine ([1]; scopolamine 1.0 mg/kg i/p 15 minutes before training plus undertraining, average, controls about 80%) [%] | Number of animals with CPAR (%) ([1]; scopolamine alone 1.0 mg/kg i/p (amnesia control group))
1 | Nc1cc[n+](-c2nccc3c2cc([N+](=O)[O-])c(=O)n3-c2ccccc2)cc1 [Compound 2, 4-amino-1-(3-nitro-2-oxo-1-pheny-1,2-dihydro-1,6-naphthyridin-5-yl)pyridinium chloride] | 60 | 80 | 70 | 60 | improved learning and memory | 10770 | 108 ± 14.1 |  | 
2 | CN1C(=O)C(=CNc2ccncc2)C(=O)N(C)C1=O [Compound 1, 1,3-dimethyl-5-[(4-pyridylamino)methylene]barbituric acid] | 90.0 | 80.0 | 60.0 | 50.0 | improved learning and memory | 1530 | 15.3 ± 2.6 |  | 
3 | CN1[C@@H]2C[C@@H](OC(=O)[C@H](CO)c3ccccc3)C[C@H]1[C@@H]1O[C@@H]12 [Scopolamine, scopolamine, reference compound] |  |  |  |  |  |  |  | 28 | 35
